Source: ChEMBL document CHEMBL1153982, “Synthesis and evaluation of 2,7-diamino-thiazolo[4,5-d] pyrimidine analogues as anti-tumor epidermal growth factor receptor (EGFR) tyrosine kinase inhibitors” (Bioorg Med Chem Lett, 2009)
≈ marks a conversion by molar mass, not a printed value.

How the values were obtained:
[1] = molecular target: Epidermal growth factor receptor (Homo sapiens, UniProt P00533)
[2] = Cmax in rat at 10 mg/kg; assay type: ADME, organism-based; design: dose 10 mg/kg; conditions: in vivo
[3] = Half life in rat at 10 mg/kg; assay type: ADME, organism-based; design: dose 10 mg/kg; conditions: in vivo
[4] = Metabolic stability to human liver microsomes assessed as half life; assay type: ADME, Microsome
[5] = Oral bioavailability in rat at 10 mg/kg; assay type: ADME, organism-based; conditions: in vivo
[6] = AUC in rat at 10 mg/kg; assay type: ADME, organism-based; design: dose 10 mg/kg; conditions: plasma
[7] = Solubility in aqueous buffer at pH 7.4; assay type: physicochemical
[8] = Solubility in aqueous buffer at pH 2.0; assay type: physicochemical
[9] = Cmax in mouse at 10 mg/kg; assay type: ADME, organism-based; design: dose 10 mg/kg; conditions: in vivo
[10] = Half life in mouse at 10 mg/kg; assay type: ADME, organism-based; design: dose 10 mg/kg; conditions: in vivo
[11] = AUC in mouse at 10 mg/kg; assay type: ADME, organism-based; design: dose 10 mg/kg; conditions: plasma
[12] = Oral bioavailability in mouse at 10 mg/kg; assay type: ADME, organism-based; conditions: in vivo, read-out: ED15
[13] = molecular target: Cyclin-dependent kinase 1 (Homo sapiens, UniProt P06493); test: Inhibition of CDK1
Chain of Cyclin-dependent kinase 1 (P06493 whole entry): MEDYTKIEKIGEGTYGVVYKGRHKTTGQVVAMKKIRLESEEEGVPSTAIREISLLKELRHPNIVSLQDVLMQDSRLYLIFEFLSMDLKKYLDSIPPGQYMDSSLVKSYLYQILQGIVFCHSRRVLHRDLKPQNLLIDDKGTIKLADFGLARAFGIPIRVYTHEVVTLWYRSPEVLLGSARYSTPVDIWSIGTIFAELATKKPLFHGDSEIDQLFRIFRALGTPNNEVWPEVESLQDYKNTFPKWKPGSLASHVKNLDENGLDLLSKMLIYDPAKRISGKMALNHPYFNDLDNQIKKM

Chain of Epidermal growth factor receptor (P00533 whole entry): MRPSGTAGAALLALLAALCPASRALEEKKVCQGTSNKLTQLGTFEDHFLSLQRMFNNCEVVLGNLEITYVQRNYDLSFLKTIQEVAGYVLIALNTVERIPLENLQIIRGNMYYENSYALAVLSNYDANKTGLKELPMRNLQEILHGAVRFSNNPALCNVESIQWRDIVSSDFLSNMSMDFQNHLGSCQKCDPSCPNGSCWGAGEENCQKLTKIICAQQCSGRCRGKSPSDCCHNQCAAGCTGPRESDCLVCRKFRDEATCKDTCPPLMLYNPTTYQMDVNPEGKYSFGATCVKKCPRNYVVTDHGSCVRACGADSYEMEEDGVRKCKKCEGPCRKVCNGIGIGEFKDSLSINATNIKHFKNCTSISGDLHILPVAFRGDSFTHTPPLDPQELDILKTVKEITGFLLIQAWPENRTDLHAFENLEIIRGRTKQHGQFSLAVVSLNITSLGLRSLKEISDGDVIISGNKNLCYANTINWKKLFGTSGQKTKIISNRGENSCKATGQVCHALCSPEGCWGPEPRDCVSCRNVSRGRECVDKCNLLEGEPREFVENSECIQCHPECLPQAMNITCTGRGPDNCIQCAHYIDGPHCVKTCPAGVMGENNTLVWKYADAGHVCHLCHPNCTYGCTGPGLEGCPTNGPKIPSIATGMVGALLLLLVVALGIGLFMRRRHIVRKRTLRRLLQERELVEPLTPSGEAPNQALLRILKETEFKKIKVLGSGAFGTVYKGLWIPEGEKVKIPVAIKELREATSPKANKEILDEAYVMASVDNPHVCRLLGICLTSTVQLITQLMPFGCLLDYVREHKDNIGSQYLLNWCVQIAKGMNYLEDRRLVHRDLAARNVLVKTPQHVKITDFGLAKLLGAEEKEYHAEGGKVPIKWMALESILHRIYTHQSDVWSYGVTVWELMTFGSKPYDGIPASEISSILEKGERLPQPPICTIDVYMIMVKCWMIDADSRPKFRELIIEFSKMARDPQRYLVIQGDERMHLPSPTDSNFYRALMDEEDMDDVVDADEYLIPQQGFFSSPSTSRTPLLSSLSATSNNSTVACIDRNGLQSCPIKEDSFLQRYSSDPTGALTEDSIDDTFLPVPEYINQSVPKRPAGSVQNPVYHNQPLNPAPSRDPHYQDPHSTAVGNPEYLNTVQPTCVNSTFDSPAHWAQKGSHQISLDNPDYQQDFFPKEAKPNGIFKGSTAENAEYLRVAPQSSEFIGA

| Compound | IC50 [1] [nM] | Cmax [2] [ng/mL] | half-life [4] [h] | bioavailability [5] [%] | AUC [6] [ng·h/mL] | solubility [7] [µg/mL] | solubility [8] [µg/mL] | further results |
| --- | --- | --- | --- | --- | --- | --- | --- | --- |
| CN1CCN(Cc2ccc(Nc3nc4ncnc(Nc5ccc(OCc6cccc(F)c6)c(Cl)c5)c4s3)cc2)CC1 | 9 |  |  |  |  |  |  |  |
| NS(=O)(=O)c1ccc(Nc2nc3ncnc(Nc4ccc(N5CCOCC5)c(Cl)c4)c3s2)cc1 | 3300 |  |  |  |  |  |  |  |
| Fc1ccc(Nc2ncnc3nc(Nc4ccc(CN5CCCC5)cc4)sc23)cc1Cl | 4 |  |  |  |  |  |  |  |
| N#Cc1cnc2nc(Nc3ccc(CN4CCOCC4)cc3)sc2c1Nc1ccc(F)c(Cl)c1 |  | 28 | 0.217 | 10.8 | 184 | < 0.2 | 37 (≈ 74.8 µM) | half-life [3]: 4.9 h |
| NS(=O)(=O)c1ccc(Nc2nc3ncnc(Nc4cccc(Cl)c4)c3s2)cc1 | 7 | 39 | > 1.67 | 0.8 | 224 | < 0.2 | < 0.2 |  |
| Fc1ccc(Nc2ncnc3nc(Nc4ccc(CN5CCOCC5)cc4)sc23)cc1Cl | 12 | 527 | 0.317 | 20 | 2150 | 1 (≈ 2.12 µM) | > 1000 | half-life [3]: 1.88 h; Cmax [9]: 3850 ng/mL; half-life [10]: 2.9 h; AUC [11]: 10800 ng·h/mL; bioavailability [12]: 67% |
| Fc1ccc(Nc2ncnc3nc(Nc4ccc(CCN5CCOCC5)cc4)sc23)cc1Cl | 15 | 289 | 0.183 | 13 | 1170 | < 0.2 | 290 (≈ 598 µM) | half-life [3]: 1.8 h |
| NS(=O)(=O)c1ccc(Nc2nc3ncnc(Nc4cccc(Br)c4)c3s2)cc1 | 10 |  |  |  |  |  |  |  |
| CCc1nccn1Cc1ccc(Nc2nc3ncnc(Nc4ccc(F)c(Cl)c4)c3s2)cc1 | 6 |  | 0.05 |  |  | < 0.2 | 300 (≈ 625 µM) |  |
| NS(=O)(=O)c1ccc(Nc2nc3ncnc(Nc4c(F)cccc4F)c3s2)cc1 |  |  |  |  |  |  |  | IC50 [13]: 19800 nM |

More lines, main results first:

| IC50 [1] [nM] | Cmax [2] [ng/mL] | half-life [4] [h] | bioavailability [5] [%] | AUC [6] [ng·h/mL] | solubility [7] [µg/mL] | solubility [8] [µg/mL] | Compound | further results |
| --- | --- | --- | --- | --- | --- | --- | --- | --- |
| 25 |  |  |  |  |  |  | COCCN(CCOC)S(=O)(=O)c1ccc(Nc2nc3ncnc(Nc4ccc(F)c(Cl)c4)c3s2)cc1 |  |
| 43 |  |  |  |  |  |  | C#Cc1cccc(Nc2ncnc3nc(Nc4ccc(CN5CCOCC5)cc4)sc23)c1 |  |
|  | 54 | > 1.67 | 9 | 322 | 27 (≈ 62.9 µM) | 390 (≈ 909 µM) | CN(C)Cc1ccc(Nc2nc3ncnc(Nc4ccc(F)c(Cl)c4)c3s2)cc1 | half-life [3]: 3.2 h |
|  | 2.4 | > 1.67 | 0.3 | 24 | < 0.2 | 360 (≈ 742 µM) | OC[C@@H]1CCCN1Cc1ccc(Nc2nc3ncnc(Nc4ccc(F)c(Cl)c4)c3s2)cc1 |  |
| 10 |  |  |  |  |  |  | Fc1ccc(Nc2ncnc3nc(Nc4ccc(CN5CCCCC5)cc4)sc23)cc1Cl |  |
